Source: article PMC9704104, “Towards safer anti-inflammatory therapy: synthesis of new thymol–pyrazole hybrids as dual COX-2/5-LOX inhibitors” (Journal of Enzyme Inhibition and Medicinal Chemistry, 2022)
Values joined by “and” are separate entries in the source; they are usually repeats but may differ in a detail not shown here. Identical values can stand only once.

What was measured:
[1] = tested on: formalin-induced rat paw oedema; assay: Formalin-induced paw oedema test (acute inflammation model); format: in vivo
Protocol: Animals Adult female albino rats weighing 150-250 g were used (Experimental Animal Centre in Alexandria University). All animals accessed to food and water ad libitum and were housed in 12 h dark/light cycle in a controlled condition at 23-250C. They were allowed to acclimatize for 1 week prior to experimentation. Procedures involving animals and their care were conducted in conformity with the Guide for the Care and Use of Laboratory Animals published by US National Institute of Health4 (NIH publication No. 83-23, revised) and following the ethical guidelines of Alexandria University on laboratory animals. In all tests, adequate considerations were adopted to reduce pain or discomfort of animals (Approved by AlexU-IACUC) 3. […]
Formalin-induced paw edema test (acute inflammation model):
A solution of freshly prepared formalin 5% was used as a phlogistic agent. A mark was made on the lateral malleolus of the rats’ paws delineating the injection sites. The initial volume of paw was measured by means of digital calibrated Vernier caliper .
After 45 minutes, 40 μl formalin were injected subcutaneously into the sub plantar tissue of the right hind paw of all groups under light ether anesthesia . An equal volume of saline was injected into the left hind paw and served as internal control for the degree of inflammation in the right hind paw. 5, 6 The volume of paw was measured in different treatment groups, 4 h following the formalin injection and the amount of increase in paw volume (edema volume) was calculated by subtracting the volumes before and 4 h after the injection of formalin. Edema was expressed as an increase in the volume of paw, and the percentage of edema inhibition (or percent protection against inflammation) for each rat and each group was calculated according to the following equation: […]
Where Vt is the mean volume of edema at specific time interval (4 h) and Vo is the mean volume of edema […]
Relative potency of the tested compounds was expressed as % inhibition of edema for the tested compounds

[2] = tested on: 5-LOX; assay: In vitro 5-LOX inhibitory assay (Abnova 5-LOX inhibitor screening assay kit); format: biochemical
Source text: The newly synthesised compounds were screened for their ability to inhibit 5-LOX enzymes. […] (Page: S21, Supplementary file). […]
In vitro LOX inhibitory assay
Inhibitor Screening Assay Kit detects and measures the hydroperoxides produced in the lipoxygenation reaction using a purified LOX. The detection reaction is equally sensitive to hydroperoxides at various positions within the fatty acid and will work with fatty acids of any carbon length. It is thus a general detection method for 5-LOX and can be used to screen libraries of compounds for those which inhibit 5 -LOX enzymes.
1) Blank Wells- add 100 µL of assay buffer to at least two wells.
2) Positive Control Wells- Lipoxygenase (15-LO standard) add 90 µL 15-LO and 10 µL of assay buffer […]
3) 100% Initial Activity Wells- add 90 µL 15-LO and 10 µL of solvent (DMSO) (the same solvent to dissolve the inhibitor) to two wells. The 100% initial activity wells should result in approximately 10 […]
4) Inhibitor Wells- add 90 µL of sample and I10 µL of inhibitor to two wells.
5) Initiate the reaction by adding 10 µL of substrate (either arachidonic acid or linoleic acid) to all the wells. Place the 96-well plate on a shaker for at least five minutes.
6) Add 100 µL of chromogen to each well to stop enzyme catalysis and develop the reaction. Cover with a plate cover and place the 96-well plate on a shaker for at least five minutes.
7) Remove the cover and read the absorbance at 490-500 nm using a plate reader.
Inhibitors were dissolved in DMSO. The inhibitors were added to the assay in a final volume of 10 µL before initiating with substrate. Three concentrations were prepared (25, 50 and 100 µM) to determine the concentration produced 50% enzyme inhibition.
2) The absorbance of blank wells was subtracted from absorbance of the 100% Initial activity and the […]

[3] = biological target: T1, COX-1 (Ovis aries, UniProt P05979); assay: In vitro COX-1 inhibitory assay (Cayman colorimetric COX (ovine) inhibitor screening assay kit); format: biochemical; details: mean of three replicates ± SD
T1 construct: purchased Cayman chemicals 560131
T1 sequence (P05979 25-600): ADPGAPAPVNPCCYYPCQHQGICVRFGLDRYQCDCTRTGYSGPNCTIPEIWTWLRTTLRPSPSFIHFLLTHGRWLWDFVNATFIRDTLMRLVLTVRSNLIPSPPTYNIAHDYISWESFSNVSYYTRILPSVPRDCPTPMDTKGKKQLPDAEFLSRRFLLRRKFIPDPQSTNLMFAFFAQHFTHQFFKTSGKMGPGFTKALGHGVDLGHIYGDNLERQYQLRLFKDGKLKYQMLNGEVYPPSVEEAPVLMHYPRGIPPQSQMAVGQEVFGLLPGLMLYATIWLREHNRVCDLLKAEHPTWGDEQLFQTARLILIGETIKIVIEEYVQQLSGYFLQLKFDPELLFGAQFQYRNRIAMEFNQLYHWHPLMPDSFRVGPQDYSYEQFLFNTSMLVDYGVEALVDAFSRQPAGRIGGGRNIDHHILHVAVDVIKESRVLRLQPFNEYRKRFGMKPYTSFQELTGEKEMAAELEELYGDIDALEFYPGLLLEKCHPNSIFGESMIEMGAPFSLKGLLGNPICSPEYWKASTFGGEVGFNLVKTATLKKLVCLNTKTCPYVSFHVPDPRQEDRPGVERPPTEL
Protocol: (Page: S20, Supplementary file).
Anti-inflammatory activity
In vitro COX-1 and COX-2 inhibitory assay […]
supplied by Cayman chemicals, Ann Arbor, MI, USA according to reported method 1. The colorimetric COX inhibitor screening assay utilizes the peroxidase component of cyclooxygenase. The peroxidase activity was assayed calorimetrically by monitoring the appearance of oxidized N,N,N',N'-tetramethyl-1,4-phenylenediamine (TMPD) at 590nm. The appearance of reagent was carried out following the instructions […]
The half- maximal inhibitor concentrations (IC50µM) were determined and the selectivity index (SI) values were calculated as IC50 (COX-1)/IC50 (COX-2).
1) Background wells- 160 µL of assay buffer and 10 µL of heme were added to background wells.
2) The 100% Initial activity wells- 150 µL of assay buffer, 10 µL of heme and 10 µL of enzyme (COX-1 or COX-2) were added.
3) Inhibitor well- 150 µL of assay buffer, 10 µL of heme and 10 µL of enzyme were added.
4) 10 µL of inhibitor (3 concentrations) in DMSO was added to the inhibitor wells to yield a final […]
5) 10 µL of solvent (DMSO) was added to the 100% Initial activity wells and background wells.
7) 20 µL of colorimetric substrate solution (TMPD) was added to all wells.
8) 20 µL of arachidonic acid was added to all wells to yield a final concentration of 100 µM.
10) The absorbance was measured at 590 nm using a plate reader.
The calculations were carried out in the following manner:
1) The average absorbance of all samples was determined.
2) The absorbance of background wells was subtracted from absorbance of the 100% Initial activity […]
3) Percent inhibition = (100% Initial activity – Inhibitor wells/ 100% Initial activity)∗ 100 […]
Place the 96-well plate on a shaker for at least five minutes. […]

Cc1ccc(C(C)C)c(O)c1C=NNC(=O)c1cc(-c2ccccc2)n(-c2ccccc2)n1 [Compound 8d, N'-(2-Hydroxy-3-isopropyl-6-methylbenzylidene)-1,5-diphenyl-1H-pyrazole-3-carbo-hydrazide]
% Inhibition of oedema volume ([1]; 4 h, individual rats 1-3, 5 mg/kg orally, 5 mg/kg): 58.10% and 50.70% and 53.10% | Volume of oedema (ml) 4h ([1]; 4 h after formalin, individual rats 1-3, 5 mg/kg orally, 5 mg/kg): 5.95 mL and 6.03 mL and 6.02 mL | Abs diff. ([1]; 4 h minus 0, individual rats 1-3, 5 mg/kg orally, 5 mg/kg): 0.93 and 1.07 and 1.0 | % Relative potency (4h) celecoxib, Mean ± SD ([1]; relative to % inhibition of celecoxib at 4 h, group mean ± SD): 149.0 ± 17.26% | % Relative potency (4h) celecoxib ([1]; relative to % inhibition of celecoxib at 4 h, individual rats 1-3): 165.40% and 131.0% and 150.70% | % Relative potency (4h) diclofenac, Mean ± SD ([1]; relative to % inhibition of diclofenac at 4 h, group mean ± SD): 103.7 ± 16.65% | % Relative potency (4h) diclofenac ([1]; relative to % inhibition of diclofenac at 4 h, individual rats 1-3): 122.90% and 93.20% and 95.0% | Volume of oedema (ml) 0 ([1]; time 0, individual rats 1-3, 5 mg/kg orally, 5 mg/kg): 5.02 mL and 4.96 mL | IC50 [2]: 3.11 ± 0.046 µM | IC50 [3]: 10.19 ± 0.036 µM
